Like-named read-outs stand apart in the source and are kept apart here. Blank lines part the entries; values can stand above or below the compound they belong to.
Key:
[1] = test system: Chinese hamster V79-379 cells; experiment: Uptake of phthalocyanines by V79 cells relative to AlPcCl (Table 1); type: cell-based
Experimental: (§1) Chinese hamster V79-379 lung fibroblasts were grown in monolayer culture in McCoy's 5A medium (Gibco Laboratories, Grand Island, N.Y.) augmented with 10% calf serum and buffered with 20 mM HEPES (pH 7.4).
Total uptake was determined by scraping the phthalocyanine-treated monolayer, collecting the cells on a glass-fiber filter, and extracting the phthalocyanine in ethanol, as previously described by Ramakrishnan, et al., 1989. (Ramakrishnan, N., M. E. Clay, M. F. Horng, A. R. Antunez, & H. H. Evans, "DNA Lesions and DNA Degradation in Mouse Lymphoma L5178Y Cells After Photodynamic Treatment Sensitized by Chloroaluminum Phthalocyanine",Photochem. Photobiol, in press, 1989). The amount of drug was determined by absorption at 674 nm and expressed relative to the number of cells, as measured in a Coulter cell counter on an aliquot of the cell population. Controls included cells not treated with drug, medium alone, and drug-containing medium without cells. The results of the total uptake of the various compositions of the present invention in comparison to AlPcCl are set forth below in Table 1.
(§2) The cells were treated with 1 μM AlPcCl (from Eastman Kodak, Rochester, N.Y.) or with phthalocyanine compositions I-VI (0.5-1.0 μM final concentration in the medium) for 18 hours by adding the appropriate volume of a 1.0 mM stock solution in dimethylformamide (DMF) to the culture medium. The growth medium was replaced with 4 ml Hank's balanced salt solution (HBSS), and the cells were irradiated. The light source was a 500 W tungsten-halogen lamp located approximately 29 inches below the surface of a glass exposure tray. The visible light administered to the cells was filtered to allow passage of only that portion of the visible spectrum above 600 nm (Lee Primary red filter No. 106, Vincent Lighting, Cleveland, Ohio). The fluence rate was approximately 0.074 kJ/m^2 /s at the level of the cell monolayer.
All of the compounds have been examined for the extent of cellular uptake after exposure of V79 cells to 1 μM or less in complete medium, and the data of Table 1 are presented relative to the uptake from 1 μM AlPcCl, which was 0.723±0.172 nmole/10^7 cells (mean ±S. D., 25 determinations). […] In particular, when the concentration of Compound IV was 1 μM in the medium, the uptake into the cells was sufficiently high that some of the uptake and phototoxicity studies were repeated at 0.5 μM.

[2] = test system: Chinese hamster V79-379 cells; experiment: Growth delay of V79 cultures after red light (Table 1); type: cell-based; details: for Growth Delay, efficiency relative to 1 μM AlPcCl: 18 h, 12 kJ/m^2 red light; for inhibition of V79 culture growth (in words): red light 12 kJ/m^2, three day period
Experimental: as §1, §2
At the time of light exposure, there were approximately 1.5×10^5 cells per 25 cm^2 flask. Following irradiation, the HBSS was replaced by 10 ml of fresh complete growth medium, and the cultures were returned to the 37° C. incubator. At various times before and after irradiation, duplicate cultures were trypsinized and counted. Controls included untreated cells and cells treated with light alone or drug alone. In addition, in each experiment, the drug to be tested was compared to a standard treatment, i.e. 1 μM AlPcCl for 18 hours followed by 12 kJ/m^2 light.
The inhibition of V79 culture growth was measured during a three day period following red light irradiation (12 kJ/m^2) of phthalocyanine-pretreated cells. With each of the active compounds, as well as with AlPcCl, there was an initial decrease in cell density, as dead cells became detached from the monolayer. Thereafter, the cell number per flask increased, as living cells grew and divided. The time for the cell density to recover to the level at the time of light exposure was considered the growth delay. […] The ratio of the growth delay for the test photosensitizer and the growth delay for AlPcCl measured in the same experiment is recorded in Table 1.

[3] = test system: Chinese hamster V79-379 cells; experiment: Clonogenic cell survival / photocytotoxicity in V79 cells (Table 1, FIG. 1, FIG. 2); type: cell-based; details: for CF10 (AlPcCl)/CF10 (Pc) / F10 (AlPcCl)/F10 (Pc): 1.0 μM, 18 h; for CF10 (AlPcCl)/CF10 (Pc): CF10 = intracellular concentration x fluence reducing survival to 10%; for F10 (AlPcCl)/F10 (Pc): F10 = fluence reducing survival to 10%
Experimental: FIG. 1 is a graph illustrating the photodynamic efficacy of the various compositions of the present invention in comparison to AlPcCl. The phthalocyanine composition compounds of the present invention were tested for their photodynamic efficiency against Chinese hamster fibroblast V79 cells by colony formation. Monolayer cultures were treated with the indicated phthalocyanine composition for 18 hours, irradiated with various fluences of red light, and immediately trypsinized and replated at appropriate aliquots in triplicate. Colonies of at least 50 cells were counted after 7-10 days. The plating efficiency of the untreated cells was approximately 90%.
In this regard, in FIG. 2 the data of FIG. 1 were replotted as a function of the product of the amount of cell-associated phthalocyanine and the light fluence.
as §1, §2
Cells were irradiated at a density of approximately 2×10^6 per 25 cm^2 flask. Immediately after irradiation, the cell monolayer was treated with trypsin, and appropriate aliquots were plated in triplicate to give 100 to 200 colonies in each 10-cm Petri dish. Cell survival was determined by the ability of the cells to form colonies containing at least 50 cells. The response of cells treated with 1 μM AlPcCl and light was compared in each experiment.
Photocytotoxicity of the phthalocyanines compounds I to VI was also assessed by clonogenic assay (Table 1, FIG. 1). In all experiments, 1 μM AlPcCl was included for comparison purposes. From the survival curves (FIG. 1), the fluence reducing the cell survival to 10% (F10) was obtained. The ratio of the F10 for AlPcCl and the F10 for the test compound is recorded in Table 1.
In order to take differences in cellular uptake into consideration in the assessment of the relative efficiency of these phthalocyanines as photosensitizers of V79 cells, the survival data were replotted against the product of intracellular phthalocyanine concentration and light fluence (FIG. 2). From these curves, the product of intracellular concentration and light fluence reducing survival to 10% (CF10) was obtained, and comparisons of the values for AlPcCl and the test compounds are recorded in Table 1.

[4] = white light
L5178Y cells = experiment: Induction of apoptosis (DNA fragmentation) in L5178Y-R cells (Table 6); type: cell-based, mouse; details: for Minimum Demonstrated Condition to induce apoptosis: C × F / Minimum Demonstrated Condition to induce apoptosis: Fluence: 0.5 μM
Procedure, shortened: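 Exponentially growing mouse lymphoma L5178Y-R cells loaded 18 hours with phthalocyanine at various concentrations, then irradiated with >600 nm red light (up to 30 kJ/m^2, ~74 W/m^2). DNA isolated 2 hours post-PDT, run on 1.5% agarose; value is minimum PDT dose (concentration × fluence) giving visible DNA ladder.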

V79 cells [5] = experiment: Uptake of additional phthalocyanines into V79 cells (Table 2); details: for Uptake into V79 cells: 18 hours
Experimental: (§3) V79 cells Chinese hamster lung fibroblasts were cultured using the cell culture methods described above. […] When the filters were dry, the phthalocyanines were extracted into ethanol and the absorption determined at the peak wavelength, usually 668 nm.

V79 cells [6] = experiment: Clonogenicity, killing of V79 cells using photodynamic therapy (Table 3); type: cell-based, Chinese hamster
Procedure, shortened: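 V79 Chinese hamster lung fibroblasts were loaded with 0.5 or 1.0 μM phthalocyanine, then about 18 h later irradiated with increasing doses of 675 nm broad-band red light (tungsten-halogen lamp, 600 nm high-pass filter). Recorded value is the light dose killing 90% of cells, or, failing that, the maximum kill (% survival) and its dose.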

viruses = details: New York Blood Center (Ben-Hur); cited from earlier work
V79 cells [7] = test system: V79 cells
Experimental: as §3

Compound: [Cl][Al]1[n]2c3c4ccccc4c2N=C2N=C(N=c4c5ccccc5c([n]41)=NC1=NC(=N3)c3ccccc31)c1ccccc12 [AlPcCl, chloroaluminum phthalocyanine, reference compound]
uptake from 1 μM AlPcCl [1]: 0.723±0.172 nmole/10^7 cells
growth delay ([2]; 1 μM for 18 hours and 12 kJ/m^2 light): approximately 24 hours
Growth Delay, efficiency relative to 1 μM AlPcCl [2]: 1.0
CF10 (AlPcCl)/CF10 (Pc) [3]: 1.0
F10 (AlPcCl)/F10 (Pc) [3]: 1.0

Compound: CCN(CCC[Si](C)(C)O[Si]1(C)n2c3c4ccccc4c2N=C2N=C(N=c4c5ccccc5c(n41)=NC1=NC(=N3)c3ccccc31)c1ccccc12)CCN(C)C (centres unmarked) [CH3 SiPcOSi(CH3)2 (CH2)3 N(CH2 CH3)(CH2)2 N(CH3)2]
photolysis of solutions [4]: rapidly photolyzed by white light

Compound: CN(C)CCC[Si](C)(C)[O][Al]1[n]2c3c4ccccc4c2N=C2N=C(N=c4c5ccccc5c([n]41)=NC1=NC(=N3)c3ccccc31)c1ccccc12 [Compound I, AlPcOSi(CH3)2 (CH2)3 N(CH3)2]
Uptake, efficiency relative to 1 μM AlPcCl ([1]; 1.0 μM, 18 h): 2.3
cellular uptake (in words) ([1]; V79 cells, 1 μM or less, compared with AlPcCl): taken up into the cells more efficiently than was AlPcCl
solubility in solvents (Solubility): soluble in CH2 Cl2 and toluene
Growth Delay, efficiency relative to 1 μM AlPcCl [2]: 2.1
inhibition of V79 culture growth (in words) [2]: substantial inhibition
CF10 (AlPcCl)/CF10 (Pc) [3]: 0.51
F10 (AlPcCl)/F10 (Pc) [3]: 0.94
photosensitizing efficiency / photocytotoxicity (in words) ([3]; V79 cells, red light): nearly as efficient photosensitizers as AlPcCl

Compound: CCCCCCCCCCCC[N+](C)(C)CCC[Si](C)(C)O[Si]1(O[Si](C)(C)CCC[N+](C)(C)CCCCCCCCCCCC)n2c3c4ccccc4c2N=C2N=C(N=c4c5ccccc5c(n41)=NC1=NC(=N3)c3ccccc31)c1ccccc12 [Compound XIV, SiPc[OSi(CH3)2 (CH2)3 N^+ (CH3)2 (CH2)11 CH3]2 2I^-]
induction of apoptosis (L5178Y cells; 1 μM at a fluence of 30 kJ/m^2): did not induce apoptosis
Uptake into V79 cells (V79 cells [5]; 1 μM): 0.03 ± 0.01 n Moles/10^6 cells
Uptake into V79 cells (V79 cells [5]; 4 μM): 0.05 ± 0.01 n Moles/10^6 cells
Uptake into V79 cells, composite value (V79 cells [5]; average of all data): < 0.05 n Moles/10^6 cells/μM
Uptake (from Table 2) (V79 cells [5]; repeated in Table 3): < 0.05 n Moles/10^6 cells/μM
Cell survival at highest light dose at 1 µM (V79 cells [6]; Cricetulus griseus, V79, read-out: Maximum Effect (% survival)): 93%
purging viruses from blood and/or blood components (viruses): effective at purging viruses from blood and/or blood components

Compound: CCCCCCCCCCCC[N+](C)(C)CCC[Si](C)(C)[O][Al]1[n]2c3c4ccccc4c2N=C2N=C(N=c4c5ccccc5c([n]41)=NC1=NC(=N3)c3ccccc31)c1ccccc12.[I-] [Compound XXI, AlPcOSi(CH3)2 (CH2)3 N^+ (CH3)2)(CH2)11 CH3 I^-]
Minimum Demonstrated Condition to induce apoptosis: C × F (L5178Y cells): 7.5 μm × kJ/m^2
Minimum Demonstrated Condition to induce apoptosis: Fluence (L5178Y cells): 15.0 kJ/m^2
Uptake into V79 cells, composite value (V79 cells [7]): 1.3 n Moles/10^6 cells/μM
uptake by V79 cells (in words) (V79 cells [7]): taken up particulary well
LD 90 (V79 cells [6]; 0.5 μM, 18 h, light dose killing 90% of cells): 15 kJ/m^2
purging viruses from blood and/or blood components (viruses): effective at purging viruses from blood and/or blood components

Compound: CN1CCN(CCC[Si](C)(C)O[Si]2(O[Si](C)(C)CCCN3CCN(C)CC3)n3c4c5ccccc5c3N=C3N=C(N=c5c6ccccc6c(n52)=NC2=NC(=N4)c4ccccc42)c2ccccc23)CC1 [Compound XXX, SiPc[OSi(CH3)2 (CH2)3 NC4 H8 NCH3]2]
Minimum Demonstrated Condition to induce apoptosis: C × F (L5178Y cells; DMF-Tween 80): 7.5 μm × kJ/m^2
Minimum Demonstrated Condition to induce apoptosis: Fluence (L5178Y cells; DMF-Tween 80): 15.0 kJ/m^2
solubility (Solubility): < 500 µM
solubility in DMF (Solubility): not soluble in DMF
Cell survival at highest light dose (V79 cells [6]; Cricetulus griseus, V79, concentration not given, at 10 kJ/m^2, read-out: Maximum Effect (% survival)): 30%

Compound: C[Si](C)(CCCN1CCNCC1)O[Si]1(O[Si](C)(C)CCCN2CCNCC2)n2c3c4ccccc4c2N=C2N=C(N=c4c5ccccc5c(n41)=NC1=NC(=N3)c3ccccc31)c1ccccc12 [Compound XXXII, SiPc[OSi(CH3)2 (CH2)3 NC4 H8 NH]2]
Minimum Demonstrated Condition to induce apoptosis: C × F (L5178Y cells; DMF-Tween 80): 2.5 μm × kJ/m^2
Minimum Demonstrated Condition to induce apoptosis: Fluence (L5178Y cells; DMF-Tween 80): 5 kJ/m^2
solubility in DMF (Solubility): not soluble in DMF

Continued, in another order:

photolysis of solutions [4]: rapidly photolyzed by white light
Compound: CN1CCN(CCC[Si](C)(C)O[Si]2(C)n3c4c5ccccc5c3N=C3N=C(N=c5c6ccccc6c(n52)=NC2=NC(=N4)c4ccccc42)c2ccccc23)CC1 (centres unmarked) [CH3 SiPcOSi(CH3)2 (CH2)3 NC4 H8 NCH3]

photolysis of solutions [4]: rapidly photolyzed by white light
Compound: CN(C)CCCN(CCCN(C)C)CCC[Si](C)(C)O[Si]1(C)n2c3c4ccccc4c2N=C2N=C(N=c4c5ccccc5c(n41)=NC1=NC(=N3)c3ccccc31)c1ccccc12 (centres unmarked) [CH3 SiPcOSi(CH3)2 (CH2)3 N[(CH2)3 N(CH3)2]2]

photolysis of solutions [4]: rapidly photolyzed by white light
Compound: CN(C)CCC[Si](C)(C)O[Si]1(C)n2c3c4ccccc4c2N=C2N=C(N=c4c5ccccc5c(n41)=NC1=NC(=N3)c3ccccc31)c1ccccc12 (centres unmarked) [Compound III, CH3 SiPcOSi(CH3)2 (CH2)3 N(CH3)2]
Growth Delay, efficiency relative to 1 μM AlPcCl [2]: 0.05
inhibition of V79 culture growth (in words) [2]: less inhibition of culture growth
photosensitizing efficiency / photocytotoxicity (in words) [3]: low activity
